# Measured values taken from PubChem BioAssay (NCI).
#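 Five compound concentrations were applied to cells in 96-well plates for 48 hours; endpoints were derived by simple linear interpolation of the resulting dose-response curve. At the GI50, growth is halved. TGI: concentration producing complete growth inhibition.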
# What was measured:
# Assay in all cases: growth of human tumour cells (NCI), 48 h
# [1] = system: ACHN renal
# [2] = system: HT29 colon
# [3] = system: SNB-78 CNS
# [4] = system: SNB-75 CNS
# [5] = system: OVCAR-5 ovarian
# [6] = system: A498 renal
# [7] = system: TK-10 renal
# [8] = system: M19-MEL melanoma
# [9] = system: SK-MEL-28 melanoma
# [10] = system: IGROV1 ovarian
# [11] = system: OVCAR-4 ovarian
# [12] = system: HOP-92 NSCLC
# [13] = system: 786-0 renal
# [14] = system: M14 melanoma
# [15] = system: HCT-15 colon
# [16] = system: KM12 colon
# [17] = system: OVCAR-8 ovarian
# [18] = system: SNB-19 CNS
# [19] = system: NCI-H460 lung
# [20] = system: HCC-2998 colon
# [21] = system: U251 CNS
# [22] = system: CCRF-CEM leukemia
# [23] = system: DMS 273 small cell lung
# [24] = system: NCI-H23 lung
# [25] = system: SK-MEL-5 melanoma
# [26] = system: RPMI-8226 leukemia
# [27] = system: EKVX NSCLC
# [28] = system: COLO 205 colon
# [29] = system: OVCAR-3 ovarian
# [30] = system: A549 NSCLC
# [31] = system: XF 498 CNS
# [32] = system: SF-268 CNS
# [33] = system: DLD-1 colon
# [34] = system: UACC-62 melanoma
# [35] = system: K-562 leukemia
# [36] = system: LOX IMVI melanoma
# [37] = system: MOLT-4 leukemia
# [38] = system: SW-620 colon
# [39] = system: RXF 393 renal
# [40] = system: SK-MEL-2 melanoma
# [41] = system: KM20L2 colon
# [42] = system: SF-295 CNS
# [43] = system: SR leukemia
# [44] = system: MALME-3M melanoma
# [45] = system: UO-31 renal
# [46] = system: UACC-257 melanoma
# [47] = system: CAKI-1 renal
# [48] = system: SF-539 CNS
# [49] = system: LXFL 529 NSCLC
# [50] = system: NCI-H522 lung
# [51] = system: HOP-62 NSCLC
# [52] = system: SK-OV-3 ovarian
# [53] = system: HCT-116 colon
# [54] = system: HL-60(TB) leukemia
# [55] = system: DMS 114 small cell lung
# [56] = system: NCI-H226 lung
# [57] = system: SN12C renal
compound,measurement,setting,value
CC1=C(O)C(=O)C2C(=O)C1C(C)C2c1ccc(C)cc1 (centres undefined),TGI,[1],> 100 µM
same,TGI,[2],> 100 µM
same,TGI,[3],> 100 µM
same,TGI,[4],> 100 µM
same,TGI,[5],> 100 µM
same,TGI,[6],> 100 µM
same,TGI,[7],> 100 µM
same,TGI,[8],> 100 µM
same,TGI,[9],> 100 µM
same,TGI,[10],> 100 µM
same,TGI,[11],> 100 µM
same,TGI,[12],> 100 µM
same,TGI,[13],> 100 µM
same,TGI,[14],> 100 µM
same,TGI,[15],> 100 µM
same,TGI,[16],> 100 µM
same,TGI,[17],> 100 µM
same,TGI,[18],> 100 µM
same,TGI,[19],> 100 µM
same,TGI,[20],> 100 µM
same,TGI,[21],> 100 µM
same,TGI,[22],> 100 µM
same,TGI,[23],> 100 µM
same,TGI,[24],> 100 µM
same,TGI,[25],> 100 µM
same,TGI,[26],> 100 µM
same,TGI,[27],> 100 µM
same,TGI,[28],> 100 µM
same,TGI,[29],> 100 µM
same,TGI,[30],> 100 µM
same,TGI,[31],> 100 µM
same,TGI,[32],> 100 µM
same,TGI,[33],> 100 µM
same,TGI,[34],> 100 µM
same,TGI,[35],> 100 µM
same,TGI,[36],> 100 µM
same,TGI,[37],> 100 µM
same,TGI,[38],> 100 µM
same,TGI,[39],> 100 µM
same,TGI,[40],> 100 µM
same,TGI,[41],> 100 µM
same,TGI,[42],> 100 µM
same,TGI,[43],> 100 µM
same,TGI,[44],> 100 µM
same,TGI,[45],> 100 µM
same,TGI,[46],> 100 µM
same,TGI,[47],> 100 µM
same,TGI,[48],> 100 µM
same,TGI,[49],> 100 µM
same,TGI,[50],> 100 µM
same,TGI,[51],> 100 µM
same,TGI,[52],> 100 µM
O=[N+]([O-])c1nccn1COCCI,TGI,[1],> 100 µM
same,TGI,[2],> 100 µM
same,TGI,[53],> 100 µM
same,TGI,[3],> 100 µM
same,TGI,[4],> 100 µM
same,TGI,[5],> 100 µM
same,TGI,[54],> 100 µM
same,TGI,[55],> 100 µM
same,TGI,[7],> 100 µM
same,TGI,[8],> 100 µM
same,TGI,[9],> 100 µM
same,TGI,[10],> 100 µM
same,TGI,[11],> 100 µM
same,TGI,[12],> 100 µM
same,TGI,[13],> 100 µM
same,TGI,[14],> 100 µM
same,TGI,[15],> 100 µM
same,TGI,[16],> 100 µM
same,TGI,[17],> 100 µM
same,TGI,[18],> 100 µM
same,TGI,[19],> 100 µM
same,TGI,[21],> 100 µM
same,TGI,[22],> 100 µM
same,TGI,[23],> 100 µM
same,TGI,[24],> 100 µM
same,TGI,[25],> 100 µM
same,TGI,[26],> 100 µM
same,TGI,[27],> 100 µM
same,TGI,[28],> 100 µM
same,TGI,[29],> 100 µM
same,TGI,[30],> 100 µM
same,TGI,[56],> 100 µM
same,TGI,[31],> 100 µM
same,TGI,[32],> 100 µM
same,TGI,[33],> 100 µM
same,TGI,[34],> 100 µM
same,TGI,[35],> 100 µM
same,TGI,[36],> 100 µM
same,TGI,[37],> 100 µM
same,TGI,[38],> 100 µM
same,TGI,[40],> 100 µM
same,TGI,[57],> 100 µM
same,TGI,[41],> 100 µM
same,TGI,[42],> 100 µM
same,TGI,[43],> 100 µM
same,TGI,[44],> 100 µM
same,TGI,[45],> 100 µM
same,TGI,[46],> 100 µM
same,TGI,[47],> 100 µM
same,TGI,[48],> 100 µM
same,TGI,[49],> 100 µM
same,TGI,[50],> 100 µM
same,TGI,[51],> 100 µM
same,TGI,[52],> 100 µM
CCC[CH2][Sn]([CH2]CCC)([O]C(=O)c1ccc(C)c(N)c1)[O]C(=O)c1ccc(C)c(N)c1,GI50,[1],0.352 µM
same,TGI,[1],1.32 µM
same,GI50,[2],1.34 µM
same,TGI,[2],2.64 µM
same,GI50,[53],0.527 µM
same,TGI,[53],1.86 µM
same,GI50,[3],0.277 µM
same,TGI,[3],1.54 µM
same,GI50,[4],0.502 µM
same,TGI,[4],1.87 µM
same,GI50,[5],1.82 µM
same,TGI,[5],3.22 µM
same,GI50,[54],0.144 µM
same,TGI,[54],0.863 µM
same,GI50,[6],0.351 µM
same,TGI,[6],1.21 µM
same,GI50,[55],0.132 µM
same,TGI,[55],0.322 µM
same,GI50,[7],0.515 µM
same,TGI,[7],1.66 µM
same,GI50,[8],0.244 µM
same,TGI,[8],1.28 µM
same,GI50,[9],0.347 µM
same,TGI,[9],1.57 µM
same,GI50,[10],1.16 µM
same,TGI,[10],2.42 µM
same,GI50,[11],1.24 µM
same,TGI,[11],2.48 µM
same,GI50,[12],0.305 µM
same,TGI,[12],1.7 µM
same,GI50,[13],0.323 µM
same,TGI,[13],1.31 µM
same,GI50,[14],0.647 µM
same,TGI,[14],1.92 µM
same,GI50,[15],0.698 µM
same,TGI,[15],2.01 µM
same,GI50,[16],1.31 µM
same,TGI,[16],2.61 µM
same,GI50,[17],0.91 µM
same,TGI,[17],2.12 µM
same,GI50,[18],1.2 µM
same,TGI,[18],2.43 µM
same,GI50,[19],1.43 µM
same,TGI,[19],2.74 µM
same,GI50,[20],1.14 µM
same,TGI,[20],2.36 µM
same,GI50,[21],0.287 µM
same,TGI,[21],1.28 µM
same,GI50,[23],0.623 µM
same,TGI,[23],1.97 µM
same,GI50,[24],0.203 µM
same,TGI,[24],1 µM
same,GI50,[25],1.08 µM
same,TGI,[25],2.28 µM
same,GI50,[27],0.6 µM
same,TGI,[27],1.94 µM
same,GI50,[28],0.33 µM
same,TGI,[28],1.38 µM
same,GI50,[29],1.07 µM
same,TGI,[29],2.26 µM
same,GI50,[30],2.82 µM
same,TGI,[30],8.33 µM
same,GI50,[56],0.334 µM
same,TGI,[56],1.44 µM
same,GI50,[31],0.181 µM
same,TGI,[31],0.353 µM
same,GI50,[32],0.418 µM
same,TGI,[32],1.63 µM
same,GI50,[33],0.282 µM
same,TGI,[33],1.25 µM
same,GI50,[34],0.378 µM
same,TGI,[34],1.44 µM
same,GI50,[36],0.185 µM
same,TGI,[36],0.681 µM
same,GI50,[37],0.108 µM
same,TGI,[37],0.643 µM
same,GI50,[38],0.224 µM
same,TGI,[38],1.04 µM
same,GI50,[39],0.116 µM
same,TGI,[39],0.511 µM
same,GI50,[40],0.172 µM
same,TGI,[40],0.72 µM
same,GI50,[57],0.537 µM
same,TGI,[57],1.83 µM
same,GI50,[41],1.5 µM
same,TGI,[41],2.82 µM
same,GI50,[42],1.24 µM
same,TGI,[42],2.49 µM
same,GI50,[43],0.179 µM
same,TGI,[43],3.62 µM
same,GI50,[44],0.179 µM
same,TGI,[44],0.776 µM
same,GI50,[45],1.11 µM
same,TGI,[45],2.31 µM
same,GI50,[46],0.334 µM
same,TGI,[46],1.62 µM
same,GI50,[47],0.136 µM
same,TGI,[47],1.38 µM
same,GI50,[48],0.619 µM
same,TGI,[48],1.89 µM
same,GI50,[49],0.0473 µM
same,TGI,[49],0.176 µM
same,GI50,[50],0.018 µM
same,TGI,[50],0.117 µM
same,GI50,[51],2.29 µM
same,TGI,[51],3.78 µM
same,GI50,[52],1.84 µM
same,TGI,[52],3.24 µM
